These results are taken from patent US12398111B2, “Triazine compounds and pharmaceutical use thereof” (Japan Tobacco Inc., priority 2014, dated 2025).

Molecules are shown by their SMILES.

The target in the test is T1, human mPGES-1 (Homo sapiens, UniProt O14684).
T1 construct: made in house; host or cells: FreeStyle CHO-S cells (Chinese hamster ovary), transient transfection with pcDNA3.1(+)/human mPGES-1; microsome fraction used
T1 sequence (O14684 1-152): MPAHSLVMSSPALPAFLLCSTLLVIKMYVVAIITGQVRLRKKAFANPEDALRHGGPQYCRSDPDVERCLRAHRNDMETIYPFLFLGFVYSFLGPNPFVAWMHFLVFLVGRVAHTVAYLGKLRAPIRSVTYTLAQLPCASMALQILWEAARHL
Nature of the test: Evaluation of human mPGES-1 enzyme inhibitory activity (PGE2 measured by HTRF, microsome fraction of CHO-S cells expressing human mPGES-1). It is filed as biochemical. The conditions noted are these: IC50 value; microsome fraction of CHO-S cells expressing human mPGES-1, PGE2 by HTRF. The gist of the method:
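Enzyme source: microsomes from CHO-S cells transfected with human mPGES-1 and cultured 48 hr, diluted to 5 μg/mL protein in reduced GSH (12.5 mmol/L KPB solution). Test articles were in 0.1 mol/L potassium phosphate pH 7.4, final DMSO 2% (v/v). PGE2 formed was quantified by HTRF.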
For orientation: IC50 means the concentration needed to halve the response being measured. Read a low IC50 as greater potency. For the compound `Oc1nc(-c2ccc(C(F)(F)F)cc2)nc(-c2c(Cl)cccc2OCC(F)(F)F)n1` [Example 2-36], the concentration for half-maximal inhibition (IC50) was found to be 0.053 µM.

`COC(C)(C)C(=O)NCc1ccc(Cl)c(-c2nc(O)nc(-c3cccc(C(C)(C)C)c3)n2)c1` [Example 1-84] came in with an IC50 of 0.0006 µM.

`O=C(NCc1ccc(Cl)c(-c2nc(O)nc(-c3ccc(C(F)(F)F)cc3)n2)c1)C1CCCCC1` [Example 1-29] gave an IC50 of 0.0011 µM.

Take `CCc1ccccc1COc1cccc(Cl)c1-c1nc(O)nc(-c2ccc(C(F)(F)F)cc2)n1` [Example 2-49]: half-maximal inhibition (IC50) required 0.014 µM.

Regarding `CC(C)(C)OC(=O)N1CCC2(CC1)CCN(Cc1ccc(Cl)c(-c3nc(O)nc(-c4ccccc4)n3)c1)C2=O` [Example 1-265], the IC50 was found to be 0.056 µM.

Regarding `O=C(NCc1ccc(Cl)c(-c2nc(O)nc(-c3ccccc3)n2)c1)C1CCC1` [Example 1-66], it took 0.0041 µM to reach half-maximal inhibition (IC50).

Turning to `Oc1nc(-c2ccc(C(F)(F)F)cc2)nc(-c2c(Cl)cccc2OCc2ccccc2)n1` [Example 2-32], the IC50 was found to be 0.014 µM.

`CC(C)(C(=O)NCc1ccc(Cl)c(-c2nc(O)nc(-c3ccc(O)cc3)n2)c1)C(F)(F)F` [Example 1-134] returned a 50% inhibitory concentration (IC50) of 0.004 µM.

`CC1(C)CN(Cc2ccc(Cl)c(-c3nc(O)nc(-c4ccccc4)n3)c2)C1=O` [Example 1-236] had an IC50 of 0.263 µM.

The compound `Cc1cccc(C)c1-c1nc(O)nc(-c2ccccc2)n1` [Example 2-2] displayed an IC50 of 21.3 µM.

With `Oc1ccc(Cl)c(-c2nc(O)nc(-c3ccc(C(F)(F)F)cc3)n2)c1` [Example 1-7], the 50% inhibitory concentration (IC50) is 0.652 µM.

Turning to `Cc1cccc(C)c1-c1nc(O)nc(-c2ccc(OCCC(C)C)cc2)n1` [Example 2-71], the half-inhibitory concentration (IC50) came out at 0.172 µM.

Regarding `Oc1nc(-c2ccc(C#Cc3ccccc3)c(F)c2)nc(-c2c(OCc3ccccn3)cccc2C(F)(F)F)n1` [Example 2-106], the IC50 is 0.005 µM.

Take `COC(C)(C)Cc1ccc(Cl)c(-c2nc(O)nc(-c3ccc(OCC(C)(C)C)cc3)n2)c1` [Example 1-215]: inhibition was half-maximal at 0.452 µM (IC50).

On to `CC1(C)C(C(=O)NCc2ccc(Cl)c(-c3nc(O)nc(-c4ccc(OCC5CC5)cc4)n3)c2)C1(C)C` [Example 1-173], for which the IC50 was 0.0054 µM.

Turning to `COCC(C)(C)C(=O)N(C)Cc1ccc(Cl)c(-c2nc(O)nc(-c3ccccc3)n2)c1` [Example 1-239], 0.428 µM corresponded to half-maximal inhibition (IC50).

For `CCCC(=O)N(C)Cc1ccc(Cl)c(-c2nc(O)nc(-c3ccccc3)n2)c1` [Example 1-225], it took 4.2 µM to reach half-maximal inhibition (IC50).

As to `CCNCc1ccc(Cl)c(-c2nc(O)nc(-c3ccc(OCC(C)(C)C)cc3)n2)c1` [Example 1-210], inhibition was half-maximal at 0.288 µM (IC50).

`CCN(Cc1ccc(Cl)c(-c2nc(O)nc(-c3ccc(OCC(C)(C)C)cc3)n2)c1)C(=O)C(C)(C)C(F)(F)F` [Example 1-235]: half-maximal inhibition (IC50) required 0.07 µM.

`CC(=O)c1ccc(Cl)c(-c2nc(O)nc(-c3ccc(C(F)(F)F)cc3)n2)c1` [Example 1-13] displayed an IC50 of 0.397 µM.

Consider `CN(C)C(=O)OCc1ccc(Cl)c(-c2nc(O)nc(-c3ccc(OCC4CC4)cc3)n2)c1` [Example 1-190], for which the concentration for half-maximal inhibition (IC50) is 0.047 µM.

For `O=C(O)c1ccc(Cl)c(-c2nc(O)nc(-c3ccc(C(F)(F)F)cc3)n2)c1` [Example 1-8], the concentration for half-maximal inhibition (IC50) was 27 µM.

In turn, `Cc1cc(-c2nc(O)nc(-c3cc(CNC(=O)C4(C(F)(F)F)CC4)ccc3Cl)n2)ccc1C(F)(F)F` [Example 1-149] came in with an IC50 of 0.0008 µM.

In the case of `Cc1cccc(C)c1-c1nc(O)nc(-c2ccc(OC3CCCCC3)cc2)n1` [Example 2-46], the IC50 stood at 0.494 µM.

`CCC[C@@H](C)Oc1ccc(-c2nc(O)nc(-c3cc(CNC(=O)C(C)(C)C(F)(F)F)ccc3Cl)n2)cc1` [Example 1-156] displayed an IC50 of 0.0041 µM.

In the case of `Cc1cc(Cl)c(-c2nc(O)nc(-c3ccc(OCC4CC4)cc3)n2)cc1C(N)=O` [Example 3-20], the 50% inhibitory concentration (IC50) came out at 1.1 µM.

`CCOc1cccc(-c2nc(O)nc(-c3cc(CNC(=O)C(C)(C)C)ccc3Cl)n2)c1` [Example 1-62] returned an IC50 of 0.001 µM.

The compound `CCc1cc(-c2nc(O)nc(-c3cc(CNC(=O)[C@@](C)(OC)C(F)(F)F)ccc3Cl)n2)ccc1F` [Example 1-151] had a concentration for half-maximal inhibition (IC50) of 0.0004 µM.

With `CC1(C)C(=O)N(Cc2ccc(Cl)c(-c3nc(O)nc(-c4ccccc4)n3)c2)c2ccccc21` [Example 1-258, 1-[4-chloro-3-(4-hydroxy-6-phenyl-1,3,5-triazin-2-yl)-benzyl]-3,3-dimethyl-1,3-dihydroindol-2-one], inhibition was half-maximal at 1.9 µM (IC50).

As for `CNC(=O)NCc1ccc(Cl)c(-c2nc(O)nc(-c3ccc(C(F)(F)F)cc3)n2)c1` [Example 1-35], the IC50 is 0.022 µM.

In the case of `Cc1cccc(C)c1-c1nc(O)nc(-c2ccc(OCC3CCCC3)cc2)n1` [Example 2-50], it took 0.061 µM to reach half-maximal inhibition (IC50).

For `CCN(Cc1ccc(Cl)c(-c2nc(O)nc(-c3ccccc3)n2)c1)C(=O)C(C)(C)C(F)(F)F` [Example 1-263, N-[4-chloro-3-(4-hydroxy-6-phenyl-1,3,5-triazin-2-yl)benzyl]-N-ethyl-3,3,3-trifluoro-2,2-dimethylpropionamide], the IC50 is 0.702 µM.

As for `Cc1cc(C)nc(COc2cccc(C(F)(F)F)c2-c2nc(O)nc(-c3ccc(C#Cc4ccccc4)cc3)n2)c1` [Example 2-110], the concentration for half-maximal inhibition (IC50) was 0.0074 µM.

For the compound `O=C(NCc1ccc(Cl)c(-c2nc(O)nc(-c3ccccc3)n2)c1)C1(CO)CCCC1` [Example 1-254], inhibition was half-maximal at 0.03 µM (IC50).

Compound `C[C@@H](Oc1cccc(Cl)c1-c1nc(O)nc(-c2ccc(OCC(C)(C)C)cc2)n1)c1ccccn1` [Example 2-63] had a half-inhibitory concentration (IC50) of 0.259 µM.

`CO[C@](C)(C(=O)NCc1ccc(Cl)c(-c2nc(O)nc(-c3ccc(C(C)(F)F)cc3)n2)c1)C(F)(F)F` [Example 1-138]: the midpoint of inhibition, the IC50, lay at 0.0005 µM.

`CCCCOc1ccc(-c2nc(O)nc(-c3c(C)cccc3C)n2)cc1` [Example 2-70] displayed a concentration for half-maximal inhibition (IC50) of 0.158 µM.

On to `O=C(NCc1ccc(Cl)c(-c2nc(O)nc(-c3ccc(F)c(C4CC4)c3)n2)c1)C1(C(F)(F)F)CC1` [Example 1-157], for which the IC50 came to 0.0007 µM.

`CO[C@](C)(C(=O)NCc1ccc(Cl)c(-c2nc(O)nc(-c3cccc(OC(F)(F)F)c3)n2)c1)C(F)(F)F` [Example 1-103] returned an IC50 of 0.0013 µM.

`CO[C@](C)(C(=O)NCc1ccc(Cl)c(-c2nc(O)nc(-c3cccc(C(C)C)c3)n2)c1)C(F)(F)F` [Example 1-108] gave a half-maximal inhibitory concentration (IC50) of 0.0006 µM.

Consider `CCOc1ccc(-c2nc(O)nc(-c3cc(CNC(=O)C(C)(C)C(F)(F)F)ccc3Cl)n2)c(C)c1` [Example 1-161], for which the concentration for half-maximal inhibition (IC50) stood at 0.0013 µM.

The compound `CCC(CC)Oc1ccc(-c2nc(O)nc(-c3c(C)cccc3C)n2)cc1` [Example 2-73] came in with a half-inhibitory concentration (IC50) of 0.402 µM.

Turning to `CN(C)C(=O)c1ccc(Cl)c(-c2nc(O)nc(-c3ccc(OCC4CC4)cc3)n2)c1` [Example 1-195], the half-inhibitory concentration (IC50) amounted to 6 µM.

With `CC(C)C(=O)N(C)Cc1ccc(Cl)c(-c2nc(O)nc(-c3ccccc3)n2)c1` [Example 1-222], the IC50 amounted to 0.165 µM.

Consider `Cc1cccc(C)c1-c1nc(O)nc(-c2ccc(CCc3ccccc3)cc2)n1` [Example 2-12], for which the IC50 worked out at 0.141 µM.

In the case of `COc1c(C)ccc(Cl)c1-c1nc(O)nc(-c2ccc(C(F)(F)F)cc2)n1` [Example 3-3], the IC50 was 0.141 µM.

As to `Cc1cc(C)cc(-c2nc(O)nc(-c3cc(CNC(=O)C(C)(C)C(F)(F)F)ccc3Cl)n2)c1` [Example 1-93], the IC50 stood at 0.0007 µM.

`O=C(NCc1ccc(Cl)c(-c2nc(O)nc(-c3ccccc3)n2)c1)C1CCCC1` [Example 1-67] displayed an IC50 of 0.001 µM.

The compound `Cc1cccc(COc2cccc(C(F)(F)F)c2-c2nc(O)nc(-c3ccc(C#Cc4ccc(F)cc4)cc3)n2)n1` [Example 2-117] displayed an IC50 of 0.0047 µM.

In turn, `CN(Cc1ccc(Cl)c(-c2nc(O)nc(-c3ccccc3)n2)c1)C(=O)C1(C(F)(F)F)CCCCC1` [Example 1-244] came in with an IC50 of 0.021 µM.

Turning to `CC(C)c1cccc(-c2nc(O)nc(-c3cc(CNC(=O)C(C)(C)C)ccc3Cl)n2)c1` [Example 1-49], the half-maximal inhibitory concentration (IC50) was 0.0009 µM.

For `CO[C@](C)(C(=O)NCc1ccc(Cl)c(-c2nc(O)nc(-c3ccc(C)c(F)c3)n2)c1)C(F)(F)F` [Example 1-105], half-maximal inhibition (IC50) required 0.0007 µM.

`Cc1ccnc(COc2cccc(C(F)(F)F)c2-c2nc(O)nc(-c3ccc(C#Cc4ccccc4)cc3)n2)c1` [Example 2-113] yielded a 50% inhibitory concentration (IC50) of 0.0051 µM.

Consider `CC(C)(C(=O)NCc1ccc(Cl)c(-c2nc(O)nc(-c3ccccc3)n2)c1)c1ccccc1` [Example 1-202], for which the IC50 is 0.0082 µM.

For `CC1(C)CCC(Oc2ccc(-c3nc(O)nc(-c4cc(CNC(=O)C(C)(C)C(F)(F)F)ccc4Cl)n3)cc2)CC1` [Example 1-179], the midpoint of inhibition, the IC50, lay at 0.016 µM.

`CC(C)(C)C(=O)NCc1ccc(Cl)c(-c2nc(O)nc(-c3ccc(OC(F)(F)F)cc3)n2)c1` [Example 1-60] showed a 50% inhibitory concentration (IC50) of 0.0004 µM.

In turn, `CS(=O)(=O)NCc1ccc(Cl)c(-c2nc(O)nc(-c3ccc(C(F)(F)F)cc3)n2)c1` [Example 1-20] displayed an IC50 of 0.0016 µM.

`CC(C)(C)c1cccc(-c2nc(O)nc(-c3cc(CNC(=O)C(C)(C)C(F)(F)F)ccc3Cl)n2)c1` [Example 1-92] returned a concentration for half-maximal inhibition (IC50) of 0.0005 µM.

In the case of `CN(Cc1ccc(Cl)c(-c2nc(O)nc(-c3ccccc3)n2)c1)C(=O)C1CCCCC1` [Example 1-229], the half-maximal inhibitory concentration (IC50) was found to be 0.532 µM.

Take `Cc1cccc(COc2cccc(C(F)(F)F)c2-c2nc(O)nc(-c3ccc(C#Cc4ccc(OC(F)(F)F)cc4)cc3)n2)n1` [Example 2-130]: half-maximal inhibition (IC50) was put at 0.035 µM.

With `CN(Cc1ccc(Cl)c(-c2nc(O)nc(-c3ccccc3)n2)c1)C(=O)C(C)(C)Cc1ccccc1` [Example 1-249], the IC50 is 0.226 µM.

`CC(C)(C)NC(=O)Cc1ccc(Cl)c(-c2nc(O)nc(-c3ccc(C(F)(F)F)cc3)n2)c1` [Example 1-41]: the half-maximal inhibitory concentration (IC50) worked out at 0.0023 µM.
